Data published in patent US20250339415A1, “DISULFIDE COMPOUNDS AS MEDICAMENTS” (CYTACOAT AB, priority 2021, published 2025).
Structures can show the parent of a compound that is named as a salt.

Assays:
Assay type in all cases: cell-based
Candida albicans = assay: Minimum inhibitory concentration (MIC), visible growth, YPD broth
Procedure: (§1) • 1. Using a sterile inoculating loop, transfer bacteria/Candida albicans from frozen stock culture and streak them on a fresh LA plate. • 2. Incubate the plate at 37° C. overnight (o/n) (18-24 h).
(§2) • 1. Prepare bacterial culture by adding 20 ml Mueller Hinton broth (*) to a 250-ml Erlenmeyer flask with sidearm. • 2. Using a sterile inoculating loop, pick approximately 10 colonies from the o/n bacterial culture and transfer bacteria to the flask. • 3. Incubate the E-flask with bacteria on a rotating shaker at 37° C. until OD590=0.40. This OD should equal an approximate bacterial count of 1×10^8 cfu/ml (**) • This is measured using a colorimeter (or spectrophotometer). Set reference and press R (=reference) first, then measure the bacterial culture by pressing T (=test). • 4. At OD590 0.40, serially dilute the bacterial suspension 1:10 000 in Mueller Hinton broth to obtain a bacterial target concentration of 1×10^4 cfu/ml. Determine the initial inoculation by serially diluting 0.1 ml in 0.9 ml blanks of sterile PBS and plating 0.1 ml aliquots to LA plates, preferably. • 5. Different concentrations of the tested compound are prepared in 0.6-0.8 ml of the final dilution of bacterial suspension and placed in 2-ml test tubes. • 6. Incubate test tubes in an orbital shaker incubator at 37° C. for 24 h.
(§3) • 7. Analyze visible growth, i.e. “Foggy” or “Clear”. MIC is being defined as the interval between the highest “Foggy” and the lowest “Clear” concentration of the compound.
(*) When testing Candida albicans, Yeast extract Peptone Dextrose (YPD) broth is being used.
(**) For Candida albicans it is equal to 1×10^7
Different concentrations of PDEA were also prepared in Yeast extract Peptone Dextrose (YPD) broth. Candida albicans were inoculated to a concentration of 20 000 CFU/ml and incubated at 37° C. for 24 hours. Readouts were “Clear” and “Foggy”.
Different concentrations of the quaternary ammonium PDEA (Example 2) were also prepared in Yeast extract Peptone Dextrose (YPD) broth. Candida albicans were inoculated to a concentration of 20 000 CFU/ml and incubated at 37° C. for 24 hours. Readouts were “Clear” and “Foggy”.
Different concentrations of the Para position-PDEA” is (S)-4-pyridylthio cysteamine were also prepared in Yeast extract Peptone Dextrose (YPD) broth. Candida albicans were inoculated to a concentration of 20 000 CFU/ml and incubated at 37° C. for 24 hours. Readouts were “Clear” and “Foggy”.
Different concentrations of “Carboxylic acid PDEA” is 3-(2-Pyridyldithio)propanoic acid (CAS: 68617-64-1) were also prepared in Yeast extract Peptone Dextrose (YPD) broth. Candida albicans were inoculated to a concentration of 20 000 CFU/ml and incubated at 37° C. for 24 hours. Readouts were “Clear” and “Foggy”.

Escherichia coli CFT073 = assay: Minimum inhibitory concentration (MIC), visible growth
Procedure: as §1, §2, §3
(§4) Different concentrations of PDEA (Example 1) in Mueller Hinton medium were prepared. Bacteria were inoculated to a concentration of 20 000 CFU/ml and incubated at 37° C. for 24 hours. Minimum inhibitory concentrations (MICs) were determined by analyzing visible growth, i.e., readouts were “Clear” and “Foggy”.
(§5) Different concentrations of the quaternary ammonium PDEA (Example 2) in Mueller Hinton medium were prepared. Bacteria were inoculated to a concentration of 20 000 CFU/ml and incubated at 37° C. for 24 hours. Minimum inhibitory concentrations (MICs) were determined by analyzing visible growth, i.e., readouts were “Clear” and “Foggy”.
(§6) Different concentrations of this compound in Mueller Hinton medium were prepared. Bacteria were inoculated to a concentration of 20 000 CFU/ml and incubated at 37° C. for 24 hours. Minimum inhibitory concentrations (MICs) were determined by analyzing visible growth, i.e., readouts were “Clear” and “Foggy”.
(§7) Different concentrations of this compound were prepared in Mueller Hinton broth. Bacteria were inoculated to a concentration of 20 000 CFU/ml and incubated at 37° C. for 24 hours. Minimum inhibitory concentrations (MICs) were determined by analyzing visible growth, i.e., readouts were “Clear” and “Foggy”.

[1] = tested on: Pseudomonas aeruginosa PA02; assay: as above
Procedure: as §1, §2, §3, §4, §5, §6, §7

[2] = tested on: Staphylococcus epidermidis Se19 (Clinical Isolate, Jan Ingemar Falk); assay: as above
Procedure: as §1, §2, §3, §4, §5, §6, §7

[3] = tested on: Klebsiella pneumoniae AO15200; assay: as above
Procedure: as §1, §2, §3, §4, §5, §6, §7

[4] = tested on: Staphylococcus aureus B5381; assay: as above
Procedure: as §1, §2, §3, §4, §5, §6, §7

[5] = tested on: Enterococcus faecium #11 (KI, Clinical Isolate); assay: as above
Procedure: as §1, §2, §3, §4, §5, §6, §7

[6] = tested on: Enterococcus faecalis #28 (KI, Clinical Isolate); assay: as above
Procedure: as §1, §2, §3, §4, §5, §6, §7

S. aureus = assay: Combination therapy: Fradiomycin with PDEA, visible growth; details: Fradiomycin 0 μg/ml
Procedure: (§8) Different concentrations of Fradiomycin in Mueller Hinton were prepared in 3 different concentrations of PDEA. E. coli and S. aureus were inoculated (10^5) and were incubated overnight. Readouts were “Clear” and “Foggy”.

E. coli = assay: as above; details: Fradiomycin 0 μg/ml
Procedure: as §8

NCCSSc1ccccn1 [PDEA, 2-(Pyridyldithio)ethylamine (hydrochloride)]
visible growth readout (Candida albicans; 0.01 mM): Foggy
visible growth readout (Candida albicans; 0.025 mM): Foggy
visible growth readout (Candida albicans; 0.05 mM): Foggy
visible growth readout (Candida albicans; 0.1 mM): Foggy
visible growth readout (Candida albicans; 0.2 mM): Foggy
visible growth readout (Candida albicans; 0.4 mM): Foggy
visible growth readout (Candida albicans; 0.8 mM): Clear
visible growth readout (Candida albicans; 1.6 mM): Clear
MIC (Candida albicans; Candida albicans, 24 h): 400 to 800 µM
visible growth readout (Escherichia coli CFT073; 0.01 mM): Foggy
visible growth readout (Escherichia coli CFT073; 0.025 mM): Foggy
visible growth readout (Escherichia coli CFT073; 0.05 mM): Foggy
visible growth readout (Escherichia coli CFT073; 0.1 mM): Clear
MIC (Escherichia coli CFT073; Escherichia coli, CFT073, 24 h): 50 to 100 µM
visible growth readout ([1]; 0.05 mM): Foggy
visible growth readout ([1]; 0.1 mM): Foggy
visible growth readout ([1]; 0.2 mM): Clear
visible growth readout ([1]; 0.4 mM): Clear
MIC ([1]; Pseudomonas aeruginosa, PA02, 24 h): 100 to 200 µM
visible growth readout ([2]; 0.01 mM): Foggy
visible growth readout ([2]; 0.025 mM): Foggy
visible growth readout ([2]; 0.05 mM): Clear
visible growth readout ([2]; 0.1 mM): Clear
MIC ([2]; Staphylococcus epidermidis, 24 h): 25 to 50 µM
visible growth readout ([3]; 0.01 mM): Foggy
visible growth readout ([3]; 0.025 mM): Foggy
visible growth readout ([3]; 0.05 mM): Foggy
visible growth readout ([3]; 0.1 mM): Clear
MIC ([3]; Klebsiella pneumoniae, AO15200, 24 h): 50 to 100 µM
visible growth readout ([4]; 0.05 mM): Foggy
visible growth readout ([4]; 0.1 mM): Foggy
visible growth readout ([4]; 0.2 mM): Clear
visible growth readout ([4]; 0.4 mM): Clear
MIC ([4]; Staphylococcus aureus, B5381, 24 h): 100 to 200 µM
visible growth readout ([5]; 0.01 mM): Foggy
visible growth readout ([5]; 0.025 mM): Foggy
visible growth readout ([5]; 0.05 mM): Clear
visible growth readout ([5]; 0.1 mM): Clear
MIC ([5]; Enterococcus faecium, 24 h): 25 to 50 µM
visible growth readout ([6]; 0.05 mM): Foggy
visible growth readout ([6]; 0.1 mM): Foggy
visible growth readout ([6]; 0.2 mM): Clear
visible growth readout ([6]; 0.4 mM): Clear
MIC ([6]; Enterococcus faecalis, 24 h): 100 to 200 µM
visible growth readout (S. aureus; PDEA 0.0125 mM): Foggy
visible growth readout (S. aureus; PDEA 0.025 mM): Foggy
visible growth readout (S. aureus; PDEA 0.05 mM): Foggy
visible growth readout (E. coli; PDEA 0.0125 mM): Foggy
visible growth readout (E. coli; PDEA 0.025 mM): Foggy
visible growth readout (E. coli; PDEA 0.05 mM): Clear
